Measured values taken from patent publication US20260159512A1, “BCAT2 INHIBITORS” (AGIOS PHARMACEUTICALS, INC., priority 2021, published 2026).

Key:
Details in all cases: average where tested multiple times
BCAT2 [1] = target: T1, BCAT2 (Homo sapiens, UniProt O15382); test: BCAT2 in vitro enzyme inhibition assay (resazurin/diaphorase-coupled fluorescence); format: biochemical
T1 sequence (O15382 28-392): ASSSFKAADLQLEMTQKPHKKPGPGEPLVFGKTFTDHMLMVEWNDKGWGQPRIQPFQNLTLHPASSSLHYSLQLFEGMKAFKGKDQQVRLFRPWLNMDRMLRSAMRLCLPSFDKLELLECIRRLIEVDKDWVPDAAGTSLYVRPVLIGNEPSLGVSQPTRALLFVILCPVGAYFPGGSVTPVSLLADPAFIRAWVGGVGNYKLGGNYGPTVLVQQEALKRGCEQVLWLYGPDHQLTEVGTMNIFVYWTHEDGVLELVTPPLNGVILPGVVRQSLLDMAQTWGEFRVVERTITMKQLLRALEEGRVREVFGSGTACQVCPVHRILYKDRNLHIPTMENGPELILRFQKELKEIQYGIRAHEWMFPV
Outline: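 Coupled fluorescence readout: glutamate formed from L-leucine/α-ketoglutarate transamination drives GDH/NAD/diaphorase reduction of resazurin (Ex 540/Em 590). Human BCAT2 was first exposed 1 h at room temperature to compound, top final 100 μM in 3-fold, 10-point series; substrate reaction ran 1 h before SDS quench, in technical duplicate with DMSO max and enzyme-free min controls.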

hBCAT1 = target: T2, hBCAT1 (Homo sapiens, UniProt P54687); test: BCAT1 in vitro enzyme inhibition assay (resazurin/diaphorase-coupled fluorescence); format: biochemical
T2 sequence (P54687 1-386): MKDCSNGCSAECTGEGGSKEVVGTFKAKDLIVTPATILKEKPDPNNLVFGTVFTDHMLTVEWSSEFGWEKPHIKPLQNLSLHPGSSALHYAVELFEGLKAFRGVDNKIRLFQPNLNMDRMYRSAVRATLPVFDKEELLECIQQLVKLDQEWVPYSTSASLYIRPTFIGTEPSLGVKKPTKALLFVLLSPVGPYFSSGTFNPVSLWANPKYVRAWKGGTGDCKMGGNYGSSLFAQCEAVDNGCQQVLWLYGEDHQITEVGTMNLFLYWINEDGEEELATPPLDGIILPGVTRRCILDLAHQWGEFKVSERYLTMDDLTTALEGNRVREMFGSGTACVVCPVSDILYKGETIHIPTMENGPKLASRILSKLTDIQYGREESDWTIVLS
Outline: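 Human BCAT1 activity read by resazurin/diaphorase-coupled fluorescence. Compounds added from 50× DMSO stocks at 1:50, giving 10-point 3-fold titrations from 100 μM top final concentration. Run in technical duplicate; repeat tests averaged.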

BCAT2 [2] = target: T1, BCAT2; test: BCAT2 in vitro cell inhibition using engineered A549 cells (KMV cell assay, 13C6-KMV by LC-MS/MS); format: cell-based; design: The result was an engineered A549 cell line that expressed endogenous BCAT2; endogenous in cells; host or cells: A549 cells with MUT and BCAT1 knocked out by CRISPR/CAS9

O=C(N[C@H]1CCC[C@@H](n2c(-c3ccccc3F)nc3cnc(-c4nc[nH]n4)cc32)[C@@H]1O)c1ccc(Cl)s1 [Example 399, 5-chloro-N-((1S,2R,3R)-3-(2-(2-fluorophenyl)-6-(1H-1,2,4-triazol-3-yl)-1H-imidazo[4,5-c]pyridin-1-yl)-2-hydroxycyclohexyl)thiophene-2-carboxamide] showed an IC50 (BCAT2 [1]) of no more than 100 nM, an IC50 (hBCAT1) of less than 500 nM and an IC50 (BCAT2 [2]) of no more than 100 nM.
In the case of O=C(N[C@H]1CCC[C@@H](n2c(-c3ccccc3F)nc3cnc(-c4nc[nH]n4)cc32)[C@@H]1O)c1ncc(Cl)s1 [Example 400, 5-chloro-N-((1S,2R,3R)-3-(2-(2-fluorophenyl)-6-(1H-1,2,4-triazol-3-yl)-1H-imidazo[4,5-c]pyridin-1-yl)-2-hydroxycyclohexyl)thiazole-2-carboxamide], the IC50 (BCAT2 [1]) is reported as no more than 100 nM, the IC50 (hBCAT1) is reported as less than 500 nM and the IC50 (BCAT2 [2]) is reported as no more than 100 nM.
With CC(C)Cc1nc2cnc(-c3nc[nH]n3)cc2n1[C@@H]1CCC[C@H](NC(=O)c2ccc(Cl)s2)[C@H]1O [Example 401, 5-chloro-N-((1S,2R,3R)-2-hydroxy-3-(2-isobutyl-6-(1H-1,2,4-triazol-3-yl)-1H-imidazo[4,5-c]pyridin-1-yl)cyclohexyl)thiophene-2-carboxamide] the IC50 (BCAT2 [1]) was no more than 100 nM, the IC50 (hBCAT1) was less than 500 nM and the IC50 (BCAT2 [2]) was no more than 100 nM.
O=C(NC1CCCCC(n2c(-c3ccccc3F)nc3cnc(-c4nc[nH]n4)cc32)C1O)c1ncc(Cl)s1 (stereo not drawn) [Example 402, 5-chloro-N-((2-(2-fluorophenyl)-6-(1H-1,2,4-triazol-3-yl)-1H-imidazo[4,5-c]pyridin-1-yl)-2-hydroxycycloheptyl)thiazole-2-carboxamide] was tested, and the IC50 (BCAT2 [1]) was no more than 100 nM, the IC50 (hBCAT1) was less than 500 nM and the IC50 (BCAT2 [2]) was no more than 100 nM.
O=C(NC1CCCCC(n2c(-c3c(O)cccc3F)nc3cnc(-c4nc[nH]n4)cc32)C1O)c1ccc(Cl)s1 (stereo not drawn) [Example 403, 5-chloro-N-(3-(2-(2-fluoro-6-hydroxyphenyl)-6-(1H-1,2,4-triazol-3-yl)-1H-imidazo[4,5-c]pyridin-1-yl)-2-hydroxycycloheptyl)thiophene-2-carboxamide] was tested, and the IC50 (BCAT2 [1]) was no more than 100 nM, the IC50 (hBCAT1) was less than 500 nM and the IC50 (BCAT2 [2]) was 100 to 500 nM.
With O=C(N[C@H]1CCCC[C@@H](n2c(-c3ccccc3F)nc3cnc(-c4nc[nH]n4)cc32)[C@@H]1O)c1ccc(Cl)s1 [Example 405, 5-chloro-N-((1S,2R,3R)-3-(2-(2-fluorophenyl)-6-(1H-1,2,4-triazol-3-yl)-1H-imidazo[4,5-c]pyridin-1-yl)-2-hydroxycycloheptyl)thiophene-2-carboxamide] the IC50 (BCAT2 [1]) was no more than 100 nM, the IC50 (hBCAT1) was less than 500 nM and the IC50 (BCAT2 [2]) was no more than 100 nM.
Compound COc1cccc(F)c1-c1nc2cnc(-c3nc[nH]n3)cc2n1[C@@H]1CCCC[C@H](NC(=O)c2ccc(Cl)s2)[C@H]1O [Example 407, 5-chloro-N-((1S,2R,3R)-3-(2-(2-fluoro-6-methoxyphenyl)-6-(1H-1,2,4-triazol-3-yl)-1H-imidazo[4,5-c]pyridin-1-yl)-2-hydroxycycloheptyl)thiophene-2-carboxamide] has an IC50 (BCAT2 [1]) of no more than 100 nM, an IC50 (hBCAT1) of less than 500 nM and an IC50 (BCAT2 [2]) of no more than 100 nM.
CO[C@H]1C[C@H](NC(=O)c2ncc(Cl)s2)C[C@H](n2c(CC(C)C)nc3cnc(-c4nc(C)co4)cc32)C1 [Example 409, 5-chloro-N-((1R,3S,5S)-3-(2-isobutyl-6-(4-methyloxazol-2-yl)-1H-imidazo[4,5-c]pyridin-1-yl)-5-methoxycyclohexyl)thiazole-2-carboxamide] was tested, and the IC50 (BCAT2 [1]) was no more than 100 nM, the IC50 (hBCAT1) was 500 to 1000 nM and the IC50 (BCAT2 [2]) was 100 to 500 nM.
Work on CO[C@H]1C[C@H](NC(=O)c2ncc(Cl)s2)C[C@H](n2c(CC(C)C)nc3cnc(-n4cncn4)cc32)C1 [Example 417, 5-chloro-N-((1R,3S,5S)-3-(2-isobutyl-6-(1H-1,2,4-triazol-1-yl)-1H-imidazo[4,5-c]pyridin-1-yl)-5-methoxycyclohexyl)thiazole-2-carboxamide] yielded an IC50 (BCAT2 [1]) of 100 to 500 nM, an IC50 (hBCAT1) of 1000 to 5000 nM and an IC50 (BCAT2 [2]) greater than 1000 nM.
With CO[C@H]1C[C@H](NC(=O)c2ncc(Cl)s2)C[C@H](n2c(CC(C)C)nc3cnc(-n4nccn4)cc32)C1 [Example 421, 5-chloro-N-((1R,3S,5S)-3-(2-isobutyl-6-(2H-1,2,3-triazol-2-yl)-1H-imidazo[4,5-c]pyridin-1-yl)-5-methoxycyclohexyl)thiazole-2-carboxamide] the IC50 (BCAT2 [1]) was no more than 100 nM, the IC50 (hBCAT1) was 500 to 1000 nM and the IC50 (BCAT2 [2]) was 100 to 500 nM.
Compound CO[C@H]1C[C@H](NC(=O)c2ncc(Cl)s2)C[C@H](n2c(-c3ccccc3F)nc3cnc(N4CCC[C@H]4CO)cc32)C1 [Example 429, 5-chloro-N-((1R,3S,5S)-3-(2-(2-fluorophenyl)-6-((S)-2-(hydroxymethyl)pyrrolidin-1-yl)-1H-imidazo[4,5-c]pyridin-1-yl)-5-methoxycyclohexyl)thiazole-2-carboxamide] has an IC50 (BCAT2 [1]) of no more than 100 nM, an IC50 (hBCAT1) of 500 to 1000 nM and an IC50 (BCAT2 [2]) of no more than 100 nM.
With CO[C@H]1C[C@H](NC(=O)c2ncc(Cl)s2)C[C@H](n2c(CC(C)C)nc3cnc(-c4ncccn4)cc32)C1 [Example 435, 5-chloro-N-((1R,3S,5S)-3-(2-isobutyl-6-(pyrimidin-2-yl)-1H-imidazo[4,5-c]pyridin-1-yl)-5-methoxycyclohexyl)thiazole-2-carboxamide] the IC50 (BCAT2 [1]) was no more than 100 nM, the IC50 (hBCAT1) was less than 500 nM and the IC50 (BCAT2 [2]) was no more than 100 nM.
With O=C(N[C@@H]1C[C@H](n2c(-c3ccccc3F)nc3cnc(-c4nc[nH]n4)cc32)CS(=O)(=O)C1)c1ccc(Cl)s1 [Example 456, 5-chloro-N-((3R,5S)-5-(2-(2-fluorophenyl)-6-(1H-1,2,4-triazol-3-yl)-1H-imidazo[4,5-c]pyridin-1-yl)-1,1-dioxidotetrahydro-2H-thiopyran-3-yl)thiophene-2-carboxamide] the IC50 (BCAT2 [1]) was no more than 100 nM, the IC50 (hBCAT1) was less than 500 nM and the IC50 (BCAT2 [2]) was greater than 1000 nM.
CS(=O)(=O)N1C[C@H](NC(=O)c2ccc(Cl)s2)C[C@H](n2c(-c3ccccc3F)nc3cnc(-c4nc[nH]n4)cc32)C1 [Example 458, 5-chloro-N-((3R,5S)-5-(2-(2-fluorophenyl)-6-(1H-1,2,4-triazol-3-yl)-1H-imidazo[4,5-c]pyridin-1-yl)-1-(methylsulfonyl)piperidin-3-yl)thiophene-2-carboxamide] showed an IC50 (BCAT2 [1]) of no more than 100 nM, an IC50 (hBCAT1) of less than 500 nM and an IC50 (BCAT2 [2]) of no more than 100 nM.
Work on CS(=O)(=O)N1C[C@H](NC(=O)c2ncc(Cl)s2)C[C@H](n2c(-c3ccccc3F)nc3cnc(-c4nc[nH]n4)cc32)C1 [Example 460, 5-chloro-N-((3R,5S)-5-(2-(2-fluorophenyl)-6-(1H-1,2,4-triazol-3-yl)-1H-imidazo[4,5-c]pyridin-1-yl)-1-(methylsulfonyl)piperidin-3-yl)thiazole-2-carboxamide] yielded an IC50 (BCAT2 [1]) of no more than 100 nM, an IC50 (hBCAT1) of less than 500 nM and an IC50 (BCAT2 [2]) of no more than 100 nM.
COC(=O)N1C[C@H](NC(=O)c2ccc(Cl)s2)C[C@H](n2c(-c3ccccc3F)nc3cnc(-c4nc[nH]n4)cc32)C1 [Example 462, methyl (3R,5S)-3-(5-chlorothiophene-2-carboxamido)-5-(2-(2-fluorophenyl)-6-(1H-1,2,4-triazol-3-yl)-1H-imidazo[4,5-c]pyridin-1-yl)piperidine-1-carboxylate] showed an IC50 (BCAT2 [1]) of no more than 100 nM, an IC50 (hBCAT1) of less than 500 nM and an IC50 (BCAT2 [2]) of no more than 100 nM.
